Measurements reported in ChEMBL document CHEMBL1151076, “Discovery of MK-0476, a potent and orally active leukotriene D4 receptor antagonist devoid of peroxisomal enxyme induction” (Bioorg Med Chem Lett, 1995).

Experiments:
[1] = target: T1, Cysteinyl leukotriene receptor 1 (Cavia porcellus, UniProt Q2NNR5); assay: Concentration required for inhibition of binding of [3H]LTD4 to guinea pig lung membranes; type: tissue-based, Membrane
T1 sequence (Q2NNR5 whole entry): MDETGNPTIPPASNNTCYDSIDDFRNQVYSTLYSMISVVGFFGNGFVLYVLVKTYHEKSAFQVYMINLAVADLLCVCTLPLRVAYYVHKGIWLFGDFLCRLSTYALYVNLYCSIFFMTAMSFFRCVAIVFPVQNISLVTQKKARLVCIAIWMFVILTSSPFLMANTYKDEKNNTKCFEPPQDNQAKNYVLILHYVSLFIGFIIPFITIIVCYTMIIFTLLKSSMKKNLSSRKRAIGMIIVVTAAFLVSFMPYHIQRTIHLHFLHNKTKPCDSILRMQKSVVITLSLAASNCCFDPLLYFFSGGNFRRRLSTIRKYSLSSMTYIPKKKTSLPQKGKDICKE

Mus musculus [2] = assay: Peroxisomal enzyme induction in mice after administration of 400 mg/kg perorally for 4 days was determined.; type: functional; settings: route oral
Mus musculus [3] = assay: Liver weight increase in mice after administration of 400 mg/kg perorally for 4 days was determined.; type: functional; settings: route oral
Mus musculus [4] = assay: Peroxisomal enzyme induction in mice after administration of 200 mg/kg perorally for 4 days was determined.; type: functional; settings: route oral
Mus musculus [5] = assay: Liver weight increase in mice after administration of 200 mg/kg perorally for 4 days was determined.; type: functional; settings: route oral
[6] = target: T1, Cysteinyl leukotriene receptor 1; assay: Concentration required for inhibition of binding of [3H]-LTD4 to guinea pig lung membranes (different expt); type: tissue-based, Membrane
[7] = Bioavailability in squirrel monkey; type: ADME, organism-based; settings: saimiri, in vivo; read-out: Bioavailabiility
[8] = Terminal half-life was determined; type: ADME
Cavia porcellus = species: Cavia porcellus; assay: Antagonistic activity of leukotriene D4-induced contractions of non-tonal guinea-pig trachea; type: functional, organism-based; settings: read-out: pA2 (converted)
[9] = Reduction in the decrease in dynamic compliance after 4 hr of administration of 0.01 mg/kg to squirrel monkey; type: functional
[10] = Reduction of the increase in pulmonary resistance after 4 hr of administration of 0.01 mg/kg to squirrel monkey; type: functional

| SMILES | IC50 [1] | PEI (Mus musculus [2]) | LWI (Mus musculus [3]) | other results |
| --- | --- | --- | --- | --- |
| CC(C)(CC(=O)O)S[C@H](CCc1ccccc1C(C)(C)O)c1cccc(/C=C/c2ccc3ccc(Cl)cc3n2)c1 | 0.68 nM | -10% | 3% |  |
| C[C@H](S[C@H](CCc1ccccc1C(C)(C)O)c1cccc(/C=C/c2ccc3ccc(Cl)cc3n2)c1)[C@@H](C)C(=O)O | 2.3 nM | 393% | 32% |  |
| CN(C)C(=O)CCS[C@H](SCCC(=O)[O-])c1cccc(/C=C/c2ccc3ccc(Cl)cc3n2)c1.[Na+] | 3.1 nM | 65% | 0% |  |
| CN(C)C(=O)CCSC(SCCC(=O)[O-])c1cccc(/C=C/c2ccc3ccc(Cl)cc3n2)c1.[Na+] (configuration not stated) | 1.5 nM | 318% | 38% | IC50 [6]: 2.5 nM |
| C[C@H](CC(=O)O)S[C@H](CCc1ccccc1C(C)(C)O)c1cccc(/C=C/c2ccc3ccc(Cl)cc3n2)c1 | 0.6 nM | 109% | 12% |  |
| CC(CC(=O)O)S[C@H](CCc1ccccc1C(C)(C)O)c1cccc(/C=C/c2ccc3ccc(Cl)cc3n2)c1 (some centres not stated) | 0.79 nM |  |  | PEI (Mus musculus [4]): 22%; LWI (Mus musculus [5]): 5% |
| CC(C)(O)c1ccccc1CC[C@@H](SCC1(CC(=O)O)CC1)c1cccc(/C=C/c2ccc3ccc(Cl)cc3n2)c1 [MONTELUKAST] |  | 16% | 0% | bioavailability [7]: 42%; half-life [8]: 4 h; Kb (Cavia porcellus): 0.501 nM; Reduction [9]: 78%; Reduction [10]: 56% |

The next lines start with results.

| IC50 [1] | SMILES | PEI (Mus musculus [2]) | LWI (Mus musculus [3]) | other results |
| --- | --- | --- | --- | --- |
| 0.43 nM | CC(CS[C@H](CCc1ccccc1C(C)(C)O)c1cccc(/C=C/c2ccc3ccc(Cl)cc3n2)c1)CC(=O)O (some centres not stated) | 18% | 10% |  |
| 0.2 nM | CC[C@H](CS[C@H](CCc1ccccc1C(C)(C)O)c1cccc(/C=C/c2ccc3ccc(Cl)cc3n2)c1)C(=O)O |  |  | PEI (Mus musculus [4]): 608%; LWI (Mus musculus [5]): 63% |
| 0.3 nM | C[C@H](C(=O)O)[C@@H](C)S[C@H](CCc1ccccc1C(C)(C)O)c1cccc(/C=C/c2ccc3ccc(Cl)cc3n2)c1 | 91% | 10% |  |
| 0.58 nM | CCC(CC(=O)O)S[C@H](CCc1ccccc1C(C)(C)O)c1cccc(/C=C/c2ccc3ccc(Cl)cc3n2)c1 (some centres not stated) | 188% | 9% |  |
| 0.33 nM | C[C@@H](CC(=O)O)S[C@H](CCc1ccccc1C(C)(C)O)c1cccc(/C=C/c2ccc3ccc(Cl)cc3n2)c1 | 24% | 11% |  |
| 0.44 nM | CC(S[C@H](CCc1ccccc1C(C)(C)O)c1cccc(/C=C/c2ccc3ccc(Cl)cc3n2)c1)C(C)C(=O)O (some centres not stated) | 673% | 27% |  |
| 0.3 nM | CC(C)(CS[C@H](CCc1ccccc1C(C)(C)O)c1cccc(/C=C/c2ccc3ccc(Cl)cc3n2)c1)CC(=O)O | 25% | 2% |  |
